Measured values published in ChEMBL document CHEMBL3297734, “Cationic lipid-conjugated dexamethasone as a selective antitumor agent” (Eur J Med Chem, 2014).
Active and inactive are the calls of the source. The calls are words filed in the database; no cut-off is given here.

Legend:
[1] = Anticancer against mouse B16F10 cells after 72 hrs by MTT assay; assay type: functional, cell-based; conditions: B16-F10, 72 h
MCF7 [2] = assay: Anticancer against human MCF7 cells after 72 hrs by MTT assay; assay type: functional, cell-based; conditions: MCF7, 72 h
A549 = assay: Anticancer against human A549 cells after 72 hrs by MTT assay; assay type: functional, cell-based; conditions: A549, 72 h
CHO [3] = assay: Cytotoxicity against CHO cells after 72 hrs by MTT assay; assay type: cell-based; conditions: Cricetulus griseus
HEK-293T [4] = assay: Cytotoxicity against HEK293T cells after 72 hrs by MTT assay; assay type: cell-based; conditions: Homo sapiens
[5] = Cytotoxicity against mouse fibroblasts after 72 hrs by MTT assay; assay type: cell-based; conditions: Fibroblast
B16-F10 [6] = assay: Induction of apoptosis in mouse B16F10 cells assessed as necrotic cells at 10 uM after 48 hrs using FITC-annexin V-FITC/propidium iodide by flow cytometry (reference value: 1.7%); assay type: functional
B16-F10 [7] = assay: Induction of apoptosis in mouse B16F10 cells assessed as late apoptotic cells at 10 uM after 48 hrs using FITC-annexin V-FITC/propidium iodide by flow cytometry (reference value: 2.5%); assay type: functional
B16-F10 [8] = assay: Induction of apoptosis in mouse B16F10 cells assessed as early apoptotic cells at 10 uM after 48 hrs using FITC-annexin V-FITC/propidium iodide by flow cytometry (reference value: 0.7%); assay type: functional
B16-F10 [9] = assay: Induction of apoptosis in mouse B16F10 cells assessed as viable cells at 10 uM after 48 hrs using FITC-annexin V-FITC/propidium iodide by flow cytometry (reference value: 95.1%); assay type: functional; conditions: B16-F10, 48 h, read-out: Activity
MCF7 [10] = assay: Induction of apoptosis in human MCF7 cells assessed as necrotic cells at 10 uM after 48 hrs using FITC-annexin V-FITC/propidium iodide by flow cytometry (reference value: 7.1%); assay type: functional
MCF7 [11] = assay: Induction of apoptosis in human MCF7 cells assessed as late apoptotic cells at 10 uM after 48 hrs using FITC-annexin V-FITC/propidium iodide by flow cytometry (reference value: 3.5%); assay type: functional
MCF7 [12] = assay: Induction of apoptosis in human MCF7 cells assessed as early apoptotic cells at 10 uM after 48 hrs using FITC-annexin V-FITC/propidium iodide by flow cytometry (reference value: 3%); assay type: functional
MCF7 [13] = assay: Induction of apoptosis in human MCF7 cells assessed as viable cells at 10 uM after 48 hrs using FITC-annexin V-FITC/propidium iodide by flow cytometry (reference value: 86.4%); assay type: functional; conditions: MCF7, 48 h, read-out: Activity
CHO [14] = assay: Induction of apoptosis in CHO cells assessed as necrotic cells at 10 uM after 48 hrs using FITC-annexin V-FITC/propidium iodide by flow cytometry (Rvb =6.6%); assay type: cell-based, Cricetulus griseus; conditions: chinese hamster
CHO [15] = assay: Induction of apoptosis in CHO cells assessed as late apoptotic cells at 10 uM after 48 hrs using FITC-annexin V-FITC/propidium iodide by flow cytometry (reference value: 0%); assay type: cell-based, Cricetulus griseus; conditions: chinese hamster
CHO [16] = assay: Induction of apoptosis in CHO cells assessed as early apoptotic cells at 10 uM after 48 hrs using FITC-annexin V-FITC/propidium iodide by flow cytometry (reference value: 0.1%); assay type: cell-based, Cricetulus griseus; conditions: chinese hamster
[17] = Induction of apoptosis in CHO cells assessed as viable cells at 10 uM after 48 hrs using FITC-annexin V-FITC/propidium iodide by flow cytometry (reference value: 93.3%); assay type: cell-based, Cricetulus griseus; conditions: chinese hamster, read-out: Activity
HEK-293T [18] = assay: Induction of apoptosis in HEK293T cells assessed as necrotic cells at 10 uM after 48 hrs using FITC-annexin V-FITC/propidium iodide by flow cytometry (reference value: 0.7%); assay type: cell-based; conditions: human
HEK-293T [19] = assay: Induction of apoptosis in HEK293T cells assessed as late apoptotic cells at 10 uM after 48 hrs using FITC-annexin V-FITC/propidium iodide by flow cytometry (reference value: 0.4%); assay type: cell-based; conditions: human
HEK-293T [20] = assay: Induction of apoptosis in HEK293T cells assessed as early apoptotic cells at 10 uM after 48 hrs using FITC-annexin V-FITC/propidium iodide by flow cytometry (reference value: 0.3%); assay type: cell-based; conditions: human
[21] = Induction of apoptosis in HEK293T cells assessed as viable cells at 10 uM after 48 hrs using FITC-annexin V-FITC/propidium iodide by flow cytometry (reference value: 98.6%); assay type: cell-based, HEK-293T; conditions: human, read-out: Activity
B16-F10 [22] = assay: Cytotoxicity against mouse B16F10 cells transfected with GR-siRNA assessed as cell viability after 48 hrs by flow cytometry; assay type: functional, cell-based
MCF7 [23] = assay: Cytotoxicity against human MCF7 cells transfected with GR-siRNA assessed as cell viability after 48 hrs by flow cytometry; assay type: functional, cell-based
B16-F10 [24] = assay: Cytotoxicity against mouse B16F10 cells assessed as cell viability after 48 hrs by flow cytometry in presence of RU-486 GR antagonist; assay type: functional, cell-based
B16-F10 [25] = assay: Antitumor activity against mouse B16F10 cells xenografted in C57BL/6 mouse assessed as inhibition tumor growth at 20 mg/kg, ip measured after 24 days of tumor inoculation; assay type: functional, organism-based; set-up: dose 20 mg/kg
B16-F10 [26] = assay: Antitumor activity against mouse B16F10 cells xenografted in C57BL/6 mouse assessed as apoptotic regions at 20 mg/kg, ip measured after 24 days of tumor inoculation by TUNEL assay; assay type: functional, organism-based; set-up: dose 20 mg/kg
B16-F10 [27] = assay: Antitumor activity against mouse B16F10 cells xenografted in C57BL/6 mouse assessed as apoptotic regions at 20 mg/kg, ip measured after 24 days of tumor inoculation by VE-cadherin; assay type: functional, organism-based; set-up: dose 20 mg/kg
B16-F10 [28] = assay: Antitumor activity against mouse B16F10 cells xenografted in C57BL/6 mouse assessed as up-regulation of P53 in tumor at 20 mg/kg, ip measured after 24 days of tumor inoculation by Western blot analysis; assay type: functional, organism-based; set-up: dose 20 mg/kg
B16-F10 [29] = assay: Antitumor activity against mouse B16F10 cells xenografted in C57BL/6 mouse assessed as down-regulation of p-Mdm2 in tumor at 20 mg/kg, ip measured after 24 days of tumor inoculation by Western blot analysis; assay type: functional, organism-based; set-up: dose 20 mg/kg
B16-F10 [30] = assay: Antitumor activity against mouse B16F10 cells xenografted in C57BL/6 mouse assessed as reduction in angiogenesis in tumor measured as VEGRF2 expression at 20 mg/kg, ip measured after 24 days of tumor inoculation by microscopy relative to untreated control; assay type: functional, organism-based; set-up: dose 20 mg/kg
B16-F10 [31] = assay: Induction of apoptosis in mouse B16F10 cells assessed as increase in ratio of BAX/Bcl2 expression at 10 uM after 48 hrs by Western blot analysis relative to untreated control; assay type: functional, cell-based
B16-F10 [32] = assay: Induction of apoptosis in mouse B16F10 cells assessed as caspase 9 activation at 10 uM after 48 hrs by Western blot analysis; assay type: functional, cell-based
B16-F10 [33] = assay: Induction of apoptosis in mouse B16F10 cells assessed as caspase 3 activation at 10 uM after 48 hrs by Western blot analysis; assay type: functional, cell-based
B16-F10 [34] = assay: Induction of apoptosis in mouse B16F10 cells assessed as up-regulation of caspase 7 at 10 uM after 48 hrs by Western blot analysis; assay type: functional, cell-based
B16-F10 [35] = assay: Induction of apoptosis in mouse B16F10 cells assessed as up-regulation of Smac/Diablo at 10 uM after 48 hrs by Western blot analysis; assay type: functional, cell-based
B16-F10 [36] = assay: Induction of apoptosis in mouse B16F10 cells assessed as down-regulation of XIAP at 10 uM after 48 hrs by Western blot analysis; assay type: functional, cell-based
B16-F10 [37] = assay: Induction of apoptosis in mouse B16F10 cells assessed as down-regulation of JAK3/STAT3 at 10 uM after 48 hrs by Western blot analysis; assay type: functional, cell-based
B16-F10 [38] = assay: Induction of apoptosis in mouse B16F10 cells assessed as Akt destruction at 10 uM after 48 hrs by Western blot analysis; assay type: functional, cell-based
B16-F10 [39] = assay: Induction of apoptosis in mouse B16F10 cells assessed as p53 up-regulation at 10 uM after 48 hrs by flow cytometry; assay type: functional, cell-based

CCCCCCCC[N+](C)(CCCCCCCC)CCNC(=O)[C@@]1(O)[C@H](C)C[C@H]2[C@@H]3CCC4=CC(=O)C=C[C@]4(C)[C@@]3(F)[C@@H](O)C[C@@]21C.[Cl-]
IC50 [1]: 6 µM
IC50 (MCF7 [2]): 6.5 µM
IC50 (A549): 7.2 µM
IC50 (CHO [3]): > 15 µM
IC50 (HEK-293T [4]): > 15 µM
IC50 [5]: > 15 µM
Activity (B16-F10 [6]): 2.5%
Activity (B16-F10 [7]): 12.5%
Activity (B16-F10 [8]): 27%
viability at 10 µM (B16-F10 [9]): 58%
Activity (MCF7 [10]): 13.1%
Activity (MCF7 [11]): 7.8%
Activity (MCF7 [12]): 18.6%
viability at 10 µM (MCF7 [13]): 61.5%
Activity (CHO [14]): 5.9%
Activity (CHO [15]): 0%
Activity (CHO [16]): 0%
viability at 48 h, 10 µM [17]: 94.1%
Activity (HEK-293T [18]): 0.5%
Activity (HEK-293T [19]): 0.1%
Activity (HEK-293T [20]): 0.1%
viability at 48 h, 10 µM [21]: 99.3%
Activity (B16-F10 [22]): inactive
Activity (MCF7 [23]): inactive
Activity (B16-F10 [24]): inactive
inhibition (B16-F10 [25]): Active
Activity (B16-F10 [26]): Active
Activity (B16-F10 [27]): inactive
Activity (B16-F10 [28]): Active
Activity (B16-F10 [29]): Active
inhibition (B16-F10 [30]): Active
Activity (B16-F10 [31]): Active
Activity (B16-F10 [32]): Active
Activity (B16-F10 [33]): Active
Activity (B16-F10 [34]): Active
Activity (B16-F10 [35]): Active
Activity (B16-F10 [36]): Active
Activity (B16-F10 [37]): Active
Activity (B16-F10 [38]): Active
Activity (B16-F10 [39]): Active

CCCC[N+](C)(CCCC)CCNC(=O)[C@@]1(O)[C@H](C)C[C@H]2[C@@H]3CCC4=CC(=O)C=C[C@]4(C)[C@@]3(F)[C@@H](O)C[C@@]21C
IC50 [1]: > 20 µM
IC50 (MCF7 [2]): > 15 µM
IC50 (A549): > 15 µM
IC50 (CHO [3]): > 20 µM
IC50 (HEK-293T [4]): > 15 µM
IC50 [5]: > 20 µM

CC[N+](C)(CC)CCNC(=O)[C@@]1(O)[C@H](C)C[C@H]2[C@@H]3CCC4=CC(=O)C=C[C@]4(C)[C@@]3(F)[C@@H](O)C[C@@]21C
IC50 [1]: > 20 µM
IC50 (MCF7 [2]): > 15 µM
IC50 (A549): > 15 µM
IC50 (CHO [3]): > 15 µM
IC50 (HEK-293T [4]): > 20 µM
IC50 [5]: > 20 µM
